Consider nine compounds from patent US20060223814A1, “Nk-2 antagonist basic linear compounds and formulations containing them” (priority 2003, published 2006).

For one assay, the target named is T1, human NK-2 receptor (Homo sapiens, UniProt P21452).
T1 construct: expressed in transfected cells; host or cells: Chinese hamster ovary (CHO) cells, membranes
T1 sequence (P21452 1-398): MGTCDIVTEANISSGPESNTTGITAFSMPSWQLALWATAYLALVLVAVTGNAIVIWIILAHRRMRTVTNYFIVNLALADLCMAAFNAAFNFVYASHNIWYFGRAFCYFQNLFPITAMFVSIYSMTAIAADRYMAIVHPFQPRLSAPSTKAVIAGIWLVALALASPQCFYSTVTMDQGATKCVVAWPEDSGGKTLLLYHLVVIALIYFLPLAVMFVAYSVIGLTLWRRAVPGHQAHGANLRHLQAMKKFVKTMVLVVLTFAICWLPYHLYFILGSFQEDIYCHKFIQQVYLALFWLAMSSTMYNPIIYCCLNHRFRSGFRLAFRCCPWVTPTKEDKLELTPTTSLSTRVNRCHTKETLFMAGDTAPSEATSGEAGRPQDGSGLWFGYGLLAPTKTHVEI
Put plainly: Binding test on membranes of CHO cells transfected with the human ileum NK-2 receptor, radioligand NKA in competition. The following applies: CHO cell membranes; radioligand NKA 100 pM; incubation 30 min., 20° C. How it is done: Assessment of the antagonist activity on NK-2 receptors was performed with binding and functional tests according to prior descriptions in the literature for NK-2 antagonists.
In particular, affinity of the compounds for the human NK-2 receptor was assessed in a binding test using membranes of Chinese hamster ovary (CHO) cells, transfected with the NK-2 receptor of human ileum and the radioligand ['251]NKA (Amersham, aspecific activity 2000 Ci/mmol) at a concentration of 100 pM in competition studies. The substances under examination were tested in a concentration range from 0.01 nM to 10 mM. At the end of incubation (30 min., 20° C.) the samples were filtered and the radioactivity was determined using a gamma-counter.
The data in table 1 were obtained for some compounds of general formula (I) and concern the values of affinity to the human NK-2 receptor: […]
For “(S) 6-Methyl-benzo[b]thiophene-2-carboxylic acid (1-{1-benzyl-4-[4-(2-hydroxy-ethyl)-piperidin-1-yl]-4-oxo-butylcarbamoyl)-cyclopentyl)-amide [Example 53]”, the “pKi (affinity to the human NK-2 receptor)” value is given as 8.7.

The same assay, now with this note: CHO cell membranes; radioligand NKA 100 pM; incubation 30 min., 20° C.; read-out: pKi (affinity to the human NK-2 receptor) (converted).
As to `Cc1ccc2cc(C(=O)NC3(C(=O)N[C@@H](CCCN4CCN(C(=O)C5CCOCC5)CC4)Cc4ccccc4)CCCC3)sc2c1` [Example 55, (S) 6-Methyl-benzo[b]thiophene-2-carboxylic acid (1-{1-benzyl-4-[4-(tetrahydro-pyran-4-carbonyl)-piperazin-1-yl]-butylcarbamoyl}-cyclopentyl)-amide], the Ki is 0.1 nM.
With `CN(C)CCCNC(=O)C=C[C@@H](Cc1ccccc1)NC(=O)C1(NC(=O)c2cc3ccccc3s2)CCCC1` [Example 46, (R) Benzo[b]thiophene-2-carboxylic acid {1-[1-benzyl-3-(3-dimethylamino-propylcarbamoyl)-allylcarbamoyl]-cyclopentyl)-amide], the Ki is 0.631 nM.
`Cc1ccc2cc(C(=O)NC3(C(=O)N[C@@H](COCCC4CCN(CC5CCOCC5)CC4)Cc4ccccc4)CCCC3)sc2c1` [Example 62]: the Ki was 0.501 nM.
As for `O=C(NC1(C(=O)N[C@@H](CCCN2CCC(Cc3ccccc3)CC2)Cc2ccccc2)CCCC1)c1cc2ccccc2s1` [Example 50, (S) Benzo[b]thiophene-2-carboxylic acid {1-[1-benzyl-4-(4-benzyl-piperidin-1-yl)-butylcarbamoyl]-cyclopentyl}-amide], the Ki is 0.126 nM.
In the case of `Cc1ccc2cc(C(=O)NC3(C(=O)N[C@@H](CCCN4CCN(CC5CCOCC5)CC4)Cc4ccccc4)CCCC3)sc2c1` [Example 54, (S) 6-Methyl-benzo[b]thiophene-2-carboxylic acid (1-{1-benzyl-4-[4-(tetrahydro-pyran-4-ylmethyl)-piperazin-1-yl]-butylcarbamoyl}-cyclopentyl)-amide], the Ki was 0.0501 nM.
With `Cc1ccc2cc(C(=O)NC3(C(=O)N[C@@H](CCCC4CCN(CC5CCOCC5)CC4)Cc4ccccc4)CCCC3)sc2c1` [Example 58, (S) 6-Methyl-benzo[b]thiophene-2-carboxylic acid (1-{1-benzyl-4-[1-(tetrahydro-pyran-4-ylmethyl)-piperidin-4-yl]-butylcarbamoyl}-cyclopentyl)-amide], the Ki was 0.126 nM.
Consider `Cc1ccc2cc(C(=O)NC3(C(=O)N[C@@H](CCC(=O)N4CCN(C5CCOCC5)CC4)Cc4ccccc4)CCCC3)sc2c1` [Example 52, (S) 6-Methyl-benzo[b]thiophene-2-carboxylic acid (1-{1-benzyl-4-oxo-4-[4-(tetrahydro-pyran-4-yl)-piperazin-1-yl]-butylcarbamoyl}-cyclopentyl)amide], for which the Ki was 0.0794 nM.
Take `Cc1ccc2cc(C(=O)NC3(C(=O)N[C@@H](CCC(=O)N4CCN(CC5CCOCC5)CC4)Cc4ccccc4)CCCC3)sc2c1` [Example 51]: the Ki was 0.0794 nM.
